Source: patent US20080286388A1, “Pharmaceutical Composition and Non Dependence Coffee Comprising Edible Carboxylic Acid and/or Its Acid Salts and Coffeine” (priority 2004, published 2008)
Converted amounts (≈) assume the structure as drawn. Where two headings read alike, the source gives them in different places.

Columns and labels:
[1] = test system: person; experiment: Tests for increase the ability of learning and memory; format: in vivo, human; details: three pieces of 600 mg, average of four tests before and after ingesting; for change in vivo at 1800 mg: Homo sapiens, po, read-out: Increase rate (%) of memory ability
Protocol: A person administrates see a random series of 100 numbers, typed by PC, for 10 minutes and memory it. Then recite and write down the memorized number series. To check the recited series with the original one to see how many numbers are correct. In each testing at least has 10 minutes interval, and repeat four times. […] Each kind of drugs testing is done in half day, morning or afternoon only. The testing results were counted by one correct number for one point. Make the average value of four times testing of before and after drug ingesting, respectively. The increase of learning or memory ability is calculated by following equation and listed in Table 14: Rate of increase of memory ability=[(average value of four time testing before ingesting drug)−(average value of four times testing after ingesting drug)]×100%/(average value of four time testing before ingesting drug)

[2] = test system: mouse's leaching cell solution (abdominal cavity cells), histamine release by 48/80 compound; experiment: Drug inhibiting effect on histamine leaching from mouse abdominal cavity cells treated with 48/80 compound; format: cell-based; details: for IC50 / inhibition at 2 µg/mL / inhibition at 5 µg/mL / inhibition at 10 µg/mL / inhibition at 50 µg/mL / inhibition at 100 µg/mL / inhibition at 300 µg/mL / inhibition at 1000 µg/mL: Mus musculus; for IC50: read-out: IC50 value (concentration for inhibiting rate of 50%)
Protocol: This is a comparative testing for drug depressing effect on the amount of leaching histamines when is treated with 48/80 (Sigma, St. MO, USA) compound.
(1). Preparation of Leaching Cell Solution from Mouse Body.
A mouse is killed and bloodletting. Then 10 ml of Locke's solution containing 0.1% bovine serum protein is injected into its abdominal cavity. After abdominal cavity being light massaged, the cavity is cut and the Locke's solution is removed. Cavity is washed with another 5 ml of Locke's solution, and this washed solution is added to the latter one. This combined solution is centrifuged at 600 rpm for 5 minutes. The sediments are washed with 5 ml of cool Locke's solution. Adding 3 ml of cold Locke's solution to the washed sediments, then a leached cell solution of abdominal cavity is obtained. (The composition of Locke's solution is: NaCL […], KCL 0.2%, CaCL2 0.15%, glucose 1.0%, in w/v, and the rest distillated water.)
(2). Drug Inhibiting Effect on the Amount of Leaching Histamines when Treated with 48/80 Compound.
1.0 ml of each of those solutions in last term is mixed with 0.3 ml of mouse's leaching cell solution and 0.5 ml of Locke's solution. This mixture is cultivated at 37° C. for 5 minutes. Then adding 0.2 ml of Locke's solution of 48/80 compound (1 mg/100 ml) and cultivated at 37° C. for 10 minutes. Then the reaction is stopped by cooling, and centrifuged at 2,500 rpm for 10 minutes. 1.7 ml of decanted solution and 0.3 ml of sediments are obtained.
0.1 ml of water and 0.2 ml of 100% trichloroacetic acid are added to the decanted solution. 1.5 ml of Locke's solution and 0.2 ml of 100% trichloroacetic acid are added to the sediments washed solution. They are cultivated at room temperature for 30 minutes. After cultivation, the mixtures are centrifuged at 3,000 rpm for 15 minutes, respectively. 0.35 ml of each of the former two solutions is sampled. In each sample, 1.65 ml of water, 0.4 ml of 1N NaOH and 0.1 ml of 0.5% OPT (o-phthalic aldehyde) in methanol are added and cultivated at room temperature for 4 minutes. The reaction is stopped by adding 0.2 ml of 2M citric acid. And finally, determine the amount of released histamines in the tested solution by fluorescence method. By the analysis, results of the inhibiting rate of histamines could be calculated.
Locke's solution is instead of each drug in control group, and instead of both drug and 48/80 compound solution in blank group.
The histamine releasing rate (A) can be calculated by following equation. […] Where (Hs) is the total amount of histamine in the decanted solution, and (Hr) is the total amount of histamine in the sediment. (A)=[(Hs)/{(Hs)+(Hr)}]×100%. Then the inhibiting rate is:
=100−[(A−A in blank group)/(A−A in control group)]×100%.

[3] = adding 5% of coffee extract, calculated by figure
[4] = testing drug 100 μg/ml, adding 5% of coffee extract, read-out: inhibiting rate (%) (adding 5% of coffee extract)
[5] = testing drug 100 μg/ml, non adding coffee extract, read-out: Inhibiting rate (%) (non adding coffee extract)
[6] = dose 2 μg/ml, adding 5% of coffee extract
[7] = dose 5 μg/ml, adding 5% of coffee extract
[8] = dose 10 μg/ml, adding 5% of coffee extract
[9] = dose 50 μg/ml, adding 5% of coffee extract
[10] = dose 100 μg/ml, adding 5% of coffee extract
[11] = dose 300 μg/ml, adding 5% of coffee extract
[12] = dose 1000 μg/ml, adding 5% of coffee extract
[13] = testing drug 100 μg/ml, adding 5% of coffee extract
[14] = testing drug 100 μg/ml, non adding coffee extract

O=C(O)/C=C\C(=O)O [Maleic acid]
change in vivo at 1800 mg [1]: 370%

O=C(O)CCC(=O)O [Succinic acid]
IC50 [2, 3]: 5.8 µg/mL (≈ 49.1 µM) | inhibition at 2 µg/mL ([2]; dose 2 μg/ml, adding 5% of coffee extract, read-out: Inhibiting rate (%)): 24.9% | inhibition at 2 µg/mL ([2]; dose 2 μg/ml, non-adding coffee extract, read-out: Inhibiting rate (%)): 17.9% | inhibition at 5 µg/mL ([2]; dose 5 μg/ml, adding 5% of coffee extract, read-out: Inhibiting rate (%)): 43.6% | inhibition at 5 µg/mL ([2]; dose 5 μg/ml, non-adding coffee extract, read-out: Inhibiting rate (%)): 37.7% | inhibition at 10 µg/mL ([2]; dose 10 μg/ml, adding 5% of coffee extract, read-out: Inhibiting rate (%)): 87.9% | inhibition at 10 µg/mL ([2]; dose 10 μg/ml, non-adding coffee extract, read-out: Inhibiting rate (%)): 84% | inhibition at 50 µg/mL ([2]; dose 50 μg/ml, adding 5% of coffee extract, read-out: Inhibiting rate (%)): 100% | inhibition at 50 µg/mL ([2]; dose 50 μg/ml, non-adding coffee extract, read-out: Inhibiting rate (%)): 100% | inhibition at 100 µg/mL ([2]; dose 100 μg/ml, adding 5% of coffee extract, read-out: Inhibiting rate (%)): 100% | inhibition at 100 µg/mL ([2]; dose 100 μg/ml, non-adding coffee extract, read-out: Inhibiting rate (%)): 100% | inhibition at 300 µg/mL ([2]; dose 300 μg/ml, adding 5% of coffee extract, read-out: Inhibiting rate (%)): 100% | inhibition at 300 µg/mL ([2]; dose 300 μg/ml, non-adding coffee extract, read-out: Inhibiting rate (%)): 100% | inhibition at 1000 µg/mL ([2]; dose 1000 μg/ml, adding 5% of coffee extract, read-out: Inhibiting rate (%)): 100% | inhibition at 1000 µg/mL ([2]; dose 1000 μg/ml, non-adding coffee extract, read-out: Inhibiting rate (%)): 100% | IC50 ([2]; non-adding coffee extract, calculated by figure): 7 µg/mL (≈ 59.3 µM) | inhibition at 100 µg/mL [2, 4]: 100% | inhibition at 100 µg/mL [2, 5]: 100% | Histamine releasing rate (%) [2, 6]: 70.5% | Histamine releasing rate (%) ([2]; dose 2 μg/ml, non-adding coffee extract): 76.2% | Histamine releasing rate (%) [2, 7]: 55.3% | Histamine releasing rate (%) ([2]; dose 5 μg/ml, non-adding coffee extract): 60.1% | Histamine releasing rate (%) [2, 8]: 19.3% | Histamine releasing rate (%) ([2]; dose 10 μg/ml, non-adding coffee extract): 22.5% | Histamine releasing rate (%) [2, 9]: 9.1% | Histamine releasing rate (%) ([2]; dose 50 μg/ml, non-adding coffee extract): 9.1% | Histamine releasing rate (%) [2, 10]: 9.3% | Histamine releasing rate (%) ([2]; dose 100 μg/ml, non-adding coffee extract): 9.3% | Histamine releasing rate (%) [2, 11]: 9.4% | Histamine releasing rate (%) ([2]; dose 300 μg/ml, non-adding coffee extract): 9.4% | Histamine releasing rate (%) [2, 12]: 9.4% | Histamine releasing rate (%) ([2]; dose 1000 μg/ml, non-adding coffee extract): 9.4% | change in vivo at 1800 mg [1]: 330%

CC1(C)[C@@H](O[C@H]2O[C@H](C(=O)[O-])[C@@H](O)[C@H](O)[C@H]2O[C@@H]2O[C@H](C(=O)[O-])[C@@H](O)[C@H](O)[C@H]2O)CC[C@]2(C)[C@H]3C(=O)C=C4[C@@H]5C[C@@](C)(C(=O)[O-])CC[C@]5(C)CC[C@@]4(C)[C@]3(C)CC[C@@H]12.[Na+].[Na+].[Na+] [Trisodium glycyrrhizinate, reference compound]
IC50 value (concentration for inhibiting rate of 50%) [2, 3]: 200 µg/mL | Histamine releasing rate (%) [2, 6]: 90.1% | Inhibiting rate (%) [2, 6]: 0.8% | Histamine releasing rate (%) [2, 7]: 89.5% | Inhibiting rate (%) [2, 7]: 1.6% | Histamine releasing rate (%) [2, 8]: 88.1% | Inhibiting rate (%) [2, 8]: 3.3% | Inhibiting rate (%) [2, 9]: 17.8% | Histamine releasing rate (%) [2, 10]: 65.5% | Inhibiting rate (%) [2, 10]: 31.1% | Histamine releasing rate (%) [2, 11]: 32.7% | Inhibiting rate (%) [2, 11]: 70.5% | Histamine releasing rate (%) [2, 12]: 9.2% | Inhibiting rate (%) [2, 12]: 100% | inhibiting rate (%) (adding 5% of coffee extract) [2, 13]: 48.3% | Inhibiting rate (%) (non adding coffee extract) [2, 14]: 30.9%

CC(=O)O [acetic acid]
inhibition at 100 µg/mL [2, 4]: 100% | inhibition at 100 µg/mL [2, 5]: 100% | change in vivo at 1800 mg [1]: 307%

O=C(O)C=C(CC(=O)O)C(=O)O [aconitic acid]
inhibition at 100 µg/mL [2, 4]: 40% | inhibition at 100 µg/mL [2, 5]: 100% | change in vivo at 1800 mg [1]: 315%

O=C([O-])CC(O)(CC(=O)O)C(=O)[O-].[K+].[K+] [dipotassium hydrogen citrate]
inhibiting rate (%) (adding 5% of coffee extract) [2, 13]: 48.7% | Inhibiting rate (%) (non adding coffee extract) [2, 14]: 40.0%

O=C([O-])CC(O)(CC(=O)[O-])C(=O)O.[Na+].[Na+] [disodium hydrogen citrate]
inhibiting rate (%) (adding 5% of coffee extract) [2, 13]: 49.4% | Inhibiting rate (%) (non adding coffee extract) [2, 14]: 39.1%

O=C1O[C@H](CO)[C@@H](O)[C@H](O)[C@H]1O [gluconolactone]
inhibition at 100 µg/mL [2, 4]: 100% | inhibition at 100 µg/mL [2, 5]: 100% | change in vivo at 1800 mg [1]: 290%

O=C(O)CCC(=O)C(=O)O [keto-glutaric acid]
inhibiting rate (%) (adding 5% of coffee extract) [2, 13]: 100% | Inhibiting rate (%) (non adding coffee extract) [2, 14]: 100% | Increase rate (%) of memory ability [1]: 321%

O=C(O)CC(=O)C(=O)O [oxalacetic acid]
inhibition at 100 µg/mL [2, 4]: 100% | inhibition at 100 µg/mL [2, 5]: 100% | change in vivo at 1800 mg [1]: 310%

O=C([O-])CC(O)(CC(=O)O)C(=O)O.[K+] [potassium dihydrogen citrate]
inhibiting rate (%) (adding 5% of coffee extract) [2, 13]: 100% | Inhibiting rate (%) (non adding coffee extract) [2, 14]: 100%

O=C([O-])/C=C/C(=O)O.[K+] [potassium hydrogen fumate]
inhibiting rate (%) (adding 5% of coffee extract) [2, 13]: 100% | Inhibiting rate (%) (non adding coffee extract) [2, 14]: 100%

O=C(O)CC(O)C(=O)O.[K] (centres unmarked) [potassium hydrogen malate]
inhibiting rate (%) (adding 5% of coffee extract) [2, 13]: 100% | Inhibiting rate (%) (non adding coffee extract) [2, 14]: 100%

O=C([O-])/C=C\C(=O)O.[K+] [potassium hydrogen maleate]
inhibiting rate (%) (adding 5% of coffee extract) [2, 13]: 100% | Inhibiting rate (%) (non adding coffee extract) [2, 14]: 100%

O=C([O-])CCC(=O)O.[K+] [potassium hydrogen succinate]
inhibiting rate (%) (adding 5% of coffee extract) [2, 13]: 100% | Inhibiting rate (%) (non adding coffee extract) [2, 14]: 100%

O=C([O-])C(O)C(O)C(=O)O.[K+] (centres unmarked) [potassium hydrogen tartrate]
inhibiting rate (%) (adding 5% of coffee extract) [2, 13]: 100% | Inhibiting rate (%) (non adding coffee extract) [2, 14]: 100%

CCC(=O)O [propionic acid]
inhibition at 100 µg/mL [2, 4]: 100% | inhibition at 100 µg/mL [2, 5]: 100% | change in vivo at 1800 mg [1]: 296%

O=C(O)CC(O)(CC(=O)O)C(=O)[O-].[Na+] [sodium dihydrogen citrate]
inhibiting rate (%) (adding 5% of coffee extract) [2, 13]: 100% | Inhibiting rate (%) (non adding coffee extract) [2, 14]: 100%

O=C([O-])/C=C/C(=O)O.[Na+] [sodium hydrogen fumate]
inhibiting rate (%) (adding 5% of coffee extract) [2, 13]: 100% | Inhibiting rate (%) (non adding coffee extract) [2, 14]: 100%

O=C([O-])CC(O)C(=O)O.[Na+] (centres unmarked) [sodium hydrogen malate]
inhibiting rate (%) (adding 5% of coffee extract) [2, 13]: 100% | Inhibiting rate (%) (non adding coffee extract) [2, 14]: 100%

O=C([O-])/C=C\C(=O)O.[Na+] [sodium hydrogen maleate]
inhibiting rate (%) (adding 5% of coffee extract) [2, 13]: 100% | Inhibiting rate (%) (non adding coffee extract) [2, 14]: 100%

O=C([O-])CCC(=O)O.[Na+] [sodium hydrogen succinate]
inhibiting rate (%) (adding 5% of coffee extract) [2, 13]: 100% | Inhibiting rate (%) (non adding coffee extract) [2, 14]: 100%

O=C([O-])C(O)C(O)C(=O)O.[Na+] (centres unmarked) [sodium hydrogen tartrate]
inhibiting rate (%) (adding 5% of coffee extract) [2, 13]: 100% | Inhibiting rate (%) (non adding coffee extract) [2, 14]: 100%

Diphenhydramine citrate [reference compound]
inhibiting rate (%) (adding 5% of coffee extract) [2, 13]: 55.5% | Inhibiting rate (%) (non adding coffee extract) [2, 14]: 37.5%
